Literature values, collected in patent publication US20240423197A1, “KIT FOR PREPARING HERBICIDAL APPLICATION MIXTURES” (BAYER CROPSCIENCE LP, priority 2021, published 2024).

Conditions: known HLB value predetermined based on estimation by Griffin's method

Substance | HLB
Polysorbate 80 (polyoxyethylene sorbitan monooleate) [Tween® 80] | 15
Sorbitan monooleate [Span® 80] | 4.3
